Consider 1 molecule from patent US9750742B2, “Small molecular inhibitors of RAD51 recombinase and methods thereof” (Drexel University, priority 2011, dated 2017).

One assay concerns the target T1, RAD54 (Homo sapiens, UniProt Q92698).
T1 construct: made in house
T1 sequence (Q92698 1-747): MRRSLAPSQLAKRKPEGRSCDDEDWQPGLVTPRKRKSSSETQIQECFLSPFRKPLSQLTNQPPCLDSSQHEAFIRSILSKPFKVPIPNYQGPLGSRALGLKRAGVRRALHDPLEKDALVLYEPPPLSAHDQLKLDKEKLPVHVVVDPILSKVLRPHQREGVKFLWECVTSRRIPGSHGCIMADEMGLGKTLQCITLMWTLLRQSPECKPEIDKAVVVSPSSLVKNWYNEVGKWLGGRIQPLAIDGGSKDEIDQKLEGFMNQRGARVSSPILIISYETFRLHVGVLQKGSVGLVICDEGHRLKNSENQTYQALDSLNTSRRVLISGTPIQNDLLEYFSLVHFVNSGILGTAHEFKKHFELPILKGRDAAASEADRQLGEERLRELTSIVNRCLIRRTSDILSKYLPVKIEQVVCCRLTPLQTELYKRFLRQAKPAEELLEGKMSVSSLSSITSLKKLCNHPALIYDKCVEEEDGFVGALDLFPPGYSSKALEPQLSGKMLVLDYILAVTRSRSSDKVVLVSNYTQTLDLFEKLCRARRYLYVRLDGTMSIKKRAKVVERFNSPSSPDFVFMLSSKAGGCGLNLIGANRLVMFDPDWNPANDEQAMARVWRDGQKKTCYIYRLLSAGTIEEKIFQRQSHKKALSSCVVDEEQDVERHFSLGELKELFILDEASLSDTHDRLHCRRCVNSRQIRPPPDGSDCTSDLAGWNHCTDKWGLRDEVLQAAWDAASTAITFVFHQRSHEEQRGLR
Briefly: DNA branch migration assay for RAD54. The format is biochemical. Particulars: 0 to 200 μM. As to the method: The partial Holliday junction (PX-junction), in which one of the four DNA arms is single-stranded (FIG. 6A), was used as a substrate for the 4-stranded branch migration promoted by RAD54 (Mazina et al., 2007, J. Biol. Chem. 282:21068-80). […] To produce PX-junctions, tailed DNA (Oligo 170, SEQ ID NO:9; Oligo 171, SEQ ID NO:10) (1.45 μM, molecules) was annealed with ^32P-labeled fork DNA (Oligo 71, SEQ ID NO:7; Oligo 169, SEQ ID NO:8) (1.33 μM, molecules) in branch migration buffer containing 25 mM Tris acetate, pH 7.5, 3 mM magnesium acetate, 2 mM ATP, 1 mM dithiothreitol, 100 μg ml^−1 bovine serum albumin, 10 U ml^−1 creatine phosphokinase, 15 mM creatine phosphate for 10 min at 37° C. and then for 10 min at 30° C. Then, branch migration was initiated immediately by addition of the RAD54 (100 nM) to PX-junctions (33 nM, molecules) in branch migration buffer and was carried out at 30° C. […] The DNA products were deproteinized by treatment with stop buffer (1.4% (w/v) SDS, 960 μg ml^−1 proteinase K, 7.5% (w/v) glycerol, 0.015% (w/v) bromphenol blue) for 5 min at 22° C. and analyzed by electrophoresis in 8% (w/v) polyacrylamide gels (29:1) in 1×TBE buffer (89 mM Tris borate, pH 8.3, and 1 mM EDTA) at 22° C. The gels were dried on DE81 chromatography paper (Whatman, Kent, UK) and quantified using a Storm 840 PhosphorImager (Molecular Dynamics, Piscataway, N.J.).

Assay [1] relates to DR-GFP reporter system in 293 human embryonic kidney (HEK) cells. Briefly: DR-GFP assay for homologous recombination in human cells. Format: cell-based. Particulars: B02 20 μM; non-treatment cells 3.28%. The protocol: 293 HEK cells expressing DR-GFP were grown until the log phase. […] Then a 200 μl mixture containing 2 μg of pCBASce supercoiled plasmid DNA encoding I-SceI rare-cutting restriction endonuclease (Richardson et al., 1998, Genes Dev. 12:3831-42) and 6 μl of GenDrill™ transfection reagent (BamaGen BioScience LLC) in Opti-MEM® I Reduced-Serum (Invitrogen) was added to each well. After 2 days incubation, cells were trypsinized and diluted to density of 200 cells/μl in PBS (10 mM Na2HPO4, 1.76 mM KH2PO4, 137 mM NaCl and 2.7 mM KCl, pH 7.4) for Fluorescence Activated Cell Sorting (FACS) analysis on a Guava EasyCyte Plus System (Millipore, Billerica, Mass.).

In a further assay the test system is pUC19 supercoiled dsDNA. Briefly: Ethidium bromide displacement assay. Format: binding. The protocol:
The fluorescence of the sample was measured using a FlouroMax-3 fluorimeter at an excitation wavelength of 260 nm and an emission wavelength of 546 nm. Then, the small molecule inhibitors were added in increasing concentrations and allowed to equilibrate for 1 min, followed by the fluorescence measurement.

For assay [2], the target named is T2, RAD51 (Homo sapiens, UniProt Q06609).
T2 construct: made in house
T2 sequence (Q06609 1-339): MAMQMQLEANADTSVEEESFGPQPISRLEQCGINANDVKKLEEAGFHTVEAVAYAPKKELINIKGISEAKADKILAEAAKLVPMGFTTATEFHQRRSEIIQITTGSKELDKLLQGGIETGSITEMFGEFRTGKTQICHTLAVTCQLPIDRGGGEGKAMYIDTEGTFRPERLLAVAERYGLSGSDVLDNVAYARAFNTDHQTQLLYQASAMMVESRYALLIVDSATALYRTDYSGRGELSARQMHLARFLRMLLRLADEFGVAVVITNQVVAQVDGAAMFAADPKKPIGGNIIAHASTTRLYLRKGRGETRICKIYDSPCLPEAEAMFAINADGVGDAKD
Briefly: B02 binding to RAD51 by SPR. The conditions noted are these: absence of ATP. The protocol:
Data were analyzed using the ProteOn Manager Software version 3.0 (Bio-Rad).
Background: In SPR one partner is held on a chip, and binding of the other changes the refractive index at the surface.

In assay [3] the target is T2, RAD51. Briefly: Effect on RAD51 oligomerization (gel filtration). The conditions noted are these: B02 200 μM, RAD51 13.5 μM. As to the method:
The samples were then centrifuged for 15 min at 16,000×g, 4° C. Supernatants were loaded on a Superose 6 10/300 GL column (GE Healthcare) equilibrated with buffer E and eluted with a flow rate of 0.2 ml/min at 4° C. The gel filtration molecular weight marker kit (29-669 kDa, Sigma) was used for column calibration. The 0.3-ml fractions were collected and analyzed by electrophoresis in a 12% SDS-PAGE gel (100 V, 90 min).
For orientation: Size exclusion chromatography separates by hydrodynamic size, large species first.

As to `O=c1c2ccccc2nc(/C=C/c2cccnc2)n1Cc1ccccc1` [Compound B02, (E)-3-benzyl-2-(2-(pyridin-3-yl)vinyl)quinazolin-4(3H)-one], the “inhibition of RAD54 branch migration, in words” value against RAD54 was “not to significantly inhibit”. In addition, the “yield of GFP positive cells (I-SceI-induced)” value in assay [1] is listed as 0.40%. Moreover, the “DNA binding, result in words” value with pUC19 supercoiled dsDNA is given as “not to bind DNA”. In addition, the kd on RAD51 [2] is recorded as 2.5 (±0.3)×10^−2 s^−1. Also, the RAD51 oligomerization result at RAD51 [3] was “does not affect RAD51 oligomerization”.
